# From PubChem BioAssay (NCI)
# Values joined by “and” are separate entries in the source; they are usually repeats but may differ in a detail not shown here. Equal values may be shown once.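 Results reflect a 48-hour exposure of cells in 96-well plates to compound at five concentrations. Here, GI50 denotes the concentration required for 50% inhibition of growth. At the TGI there is no net growth.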
# Tests used:
# Experiment in all cases: NCI tumour cell line growth inhibition, 48 h
# [1] = system: ACHN renal
# [2] = system: BT-549 breast
# [3] = system: CAKI-1 renal
# [4] = system: CCRF-CEM leukemia
# [5] = system: COLO 205 colon
# [6] = system: DLD-1 colon
# [7] = system: DMS 114 small cell lung
# [8] = system: DMS 273 small cell lung
# [9] = system: DU-145 prostate
# [10] = system: EKVX NSCLC
# [11] = system: HCC-2998 colon
# [12] = system: HCT-116 colon
# [13] = system: HCT-15 colon
# [14] = system: HOP-18 NSCLC
# [15] = system: HOP-62 NSCLC
# [16] = system: HOP-92 NSCLC
# [17] = system: HS 578T breast
# [18] = system: HT29 colon
# [19] = system: IGROV1 ovarian
# [20] = system: K-562 leukemia
# [21] = system: KM12 colon
# [22] = system: KM20L2 colon
# [23] = system: LOX IMVI melanoma
# [24] = system: M14 melanoma
# [25] = system: MALME-3M melanoma
# [26] = system: MCF7 breast
# [27] = system: MDA-MB-231 breast
# [28] = system: MDA-MB-435
# [29] = system: MDA-N
# [30] = system: MOLT-4 leukemia
# [31] = system: NCI-H460 lung
# [32] = system: NCI/ADR-RES ovarian
# [33] = system: OVCAR-3 ovarian
# [34] = system: OVCAR-5 ovarian
# [35] = system: OVCAR-8 ovarian
# [36] = system: P388 leukemia
# [37] = system: P388/ADR leukemia
# [38] = system: RPMI-8226 leukemia
# [39] = system: SF-268 CNS
# [40] = system: SK-MEL-2 melanoma
# [41] = system: SK-MEL-28 melanoma
# [42] = system: SK-MEL-5 melanoma
# [43] = system: SK-OV-3 ovarian
# [44] = system: SN12K1 renal
# [45] = system: SNB-19 CNS
# [46] = system: SNB-75 CNS
# [47] = system: SR leukemia
# [48] = system: SW-620 colon
# [49] = system: TK-10 renal
# [50] = system: UACC-257 melanoma
# [51] = system: UACC-62 melanoma
# [52] = system: UO-31 renal
compound,measurement,setting,value
O=CC(NC(=O)N(CCCl)N=O)C(O)C(O)C(O)CO (stereo unspecified),TGI,[1],> 1250 µM
same,TGI,[2],> 1250 µM
same,GI50,[3],269 µM
same,TGI,[3],625 µM and > 1250 µM
same,GI50,[4],207 µM and 515 µM
same,TGI,[4],625 µM and > 1250 µM
same,GI50,[5],> 625 µM
same,TGI,[5],> 1250 µM
same,GI50,[6],> 625 µM
same,TGI,[6],> 1250 µM
same,GI50,[7],218 µM and > 1250 µM
same,TGI,[7],625 µM and > 1250 µM
same,GI50,[8],218 µM and > 1250 µM
same,TGI,[8],625 µM and > 1250 µM and > 1210 µM
same,TGI,[9],> 1250 µM
same,GI50,[10],> 625 µM
same,TGI,[10],> 1250 µM
same,GI50,[11],> 625 µM
same,TGI,[11],> 1250 µM
same,GI50,[12],302 µM and 1030 µM and 467 µM
same,TGI,[12],625 µM and > 1250 µM and > 992 µM
same,GI50,[13],> 625 µM
same,TGI,[13],> 1250 µM
same,GI50,[14],> 625 µM
same,TGI,[14],> 1250 µM
same,GI50,[15],115 µM
same,TGI,[15],536 µM and 422 µM
same,GI50,[16],377 µM and > 1250 µM and 362 µM
same,TGI,[16],625 µM and > 1250 µM and > 1230 µM
same,TGI,[17],> 1250 µM
same,GI50,[18],> 625 µM
same,TGI,[18],> 1250 µM
same,GI50,[19],460 µM and > 1250 µM
same,TGI,[19],625 µM and > 1250 µM
same,GI50,[20],> 198 µM and 1040 µM
same,TGI,[20],> 1250 µM
same,GI50,[21],541 µM
same,TGI,[21],625 µM and > 1250 µM
same,GI50,[22],> 625 µM
same,TGI,[22],> 1250 µM
same,GI50,[23],50 µM and 303 µM and 78.7 µM
same,TGI,[23],384 µM and > 1250 µM and 661 µM
same,TGI,[24],> 1250 µM
same,GI50,[25],131 µM
same,TGI,[25],543 µM and 767 µM
same,GI50,[26],485 µM
same,TGI,[26],625 µM and > 1250 µM
same,TGI,[27],> 1250 µM
same,TGI,[28],> 1250 µM
same,TGI,[29],> 1220 µM
same,GI50,[30],104 µM
same,TGI,[30],625 µM and > 1060 µM
same,GI50,[31],208 µM and 401 µM
same,TGI,[31],625 µM and > 1250 µM and > 1210 µM
same,GI50,[32],499 µM and > 1250 µM
same,TGI,[32],625 µM and > 1250 µM
same,GI50,[33],> 625 µM
same,TGI,[33],> 1250 µM
same,GI50,[34],> 625 µM
same,TGI,[34],> 1250 µM
same,GI50,[35],> 625 µM and 587 µM
same,TGI,[35],> 1250 µM
same,TGI,[36],> 1250 µM
same,GI50,[37],34.5 µM and 65 µM
same,TGI,[37],360 µM and > 1250 µM
same,GI50,[38],497 µM and > 1250 µM
same,TGI,[38],625 µM and > 1250 µM
same,GI50,[39],19.8 µM and 137 µM
same,GI50,[40],> 625 µM
same,TGI,[40],> 1250 µM
same,GI50,[41],> 1250 µM
same,TGI,[41],> 1250 µM
same,GI50,[42],161 µM
same,TGI,[42],625 µM and 647 µM
same,GI50,[43],279 µM
same,TGI,[43],576 µM and > 1250 µM
same,GI50,[44],133 µM and 290 µM
same,TGI,[44],625 µM and > 1250 µM
same,GI50,[45],62.6 µM and 384 µM
same,TGI,[45],625 µM and > 1250 µM
same,GI50,[46],146 µM
same,TGI,[46],625 µM and 1050 µM
same,TGI,[47],> 623 µM
same,GI50,[48],171 µM and > 1250 µM
same,TGI,[48],625 µM and > 1250 µM
same,TGI,[49],> 1250 µM
same,GI50,[50],> 625 µM
same,TGI,[50],> 1250 µM
same,GI50,[51],18.5 µM
same,TGI,[51],185 µM and > 1250 µM and 939 µM
same,TGI,[52],> 1250 µM
